Measured values as given in patent US8314250B2, “Sultam derivatives” (Hoffmann-La Roche Inc., priority 2009, dated 2012).
Counter-ions that a name gives are not always drawn.

system: HeLa cells; experiment: CellTiter-Glo luminescent cell viability (cytotoxicity) assay; assay type: cell-based; conditions: Homo sapiens, HeLa, 48 h, 10 μM test compound, inhibition of luminescence compared to control cells, read-out: Activity (PCT_INHIB @ 10 μM)
Description: Cytotoxicity was assessed using Promega's CellTiter-Glo® luminescent cell viability assay (Promega Corporation, Madison, Wis., USA) as described in Promega Technical Bulletin TB288, revised August 2008. The assay was performed in HeLa cells at a maximum concentration tested of 10 μM of test compound. This assay measures the amount of adenosine triphosphate (ATP) present as a way of quantifying the presence and degree of metabolic activity in cell cultures.
Viable Hela cells were plated at a density of 3000 cells/well in 96 wells in black, clear bottom plates. Cells were allowed to attach to the plate by incubating overnight at 37° C. Test compounds were diluted in DMSO then further diluted in 10% FBS media. Media was removed from the cell plates and 50 μL of the solution was added to each well manually with the exception of the control well, which contained the same volume of 10% FBS media which includes 1% DMSO. Cells were incubated in the presence of compound undisturbed for 48 hours at 37° C. After the 48 hour compound exposure, 50 μL of the pCellTiter Glo® reagent was added. The cell plates were agitated on a shaker for 2 minutes to help lyse the cells. The plate was covered and read for luminescence.
Percent inhibition was calculated as follows: PCT_INHIB=100*[(U−T)/U] Where U represents the Luminescence of wells containing untreated cells and
T represents the Luminescence of wells containing compound-treated cells

In order of falling inhibition at 10 µM:
1. C[C@@H]1[C@@H](NC(=O)C2CCS(=O)(=O)N2Cc2cccc(CN(Cc3ccccc3Oc3ccc(C#N)cc3)[C@H](CN(C)C)CC(C)(C)C)c2)C[C@H]2C[C@@H]1C2(C)C (stereo partly drawn) [Example 16, 2-(3-{[[2-(4-Cyano-phenoxy)-benzyl]-((S)-1-dimethylaminomethyl-3,3-dimethyl-butyl)-amino]-methyl}-benzyl)-1,1-dioxo-1λ^6-isothiazolidine-3-carboxylic acid((1S,2S,3S,5R)-2,6,6-trimethyl-bicyclo[3.1.1]hept-3-yl)-amide trifluoroacetate salt]  97%
2. C[C@@H]1[C@@H](NC(=O)C2CCS(=O)(=O)N2Cc2cccc(CN(Cc3cccc4c3OCO4)[C@H](CN(C)C)CC(C)(C)C)c2)C[C@H]2C[C@@H]1C2(C)C (stereo partly drawn) [Example 17, 2-(3-{[Benzo[1,3]dioxol-4-ylmethyl-((S)-1-dimethylaminomethyl-3,3-dimethyl-butyl)-amino]-methyl}-benzyl)-1,1-dioxo-1λ^6-isothiazolidine-3-carboxylic acid((1S,2S,3S,5R)-2,6,6-trimethyl-bicyclo[3.1.1]hept-3-yl)-amide trifluoroacetate salt]  96%
3. COc1ccc(Cl)c(CN(Cc2cccc(CN3C(C(=O)N[C@H]4C[C@H]5C[C@@H]([C@@H]4C)C5(C)C)CCS3(=O)=O)c2)[C@@H](Cc2ccc(Cl)cc2)CN(C)C)c1F (stereo partly drawn) [Example 23, 2-[3-({(6-Chloro-2-fluoro-3-methoxy-benzyl)-[(S)-2-(4-chloro-phenyl)-1-dimethylaminomethyl-ethyl]-amino}-methyl)-benzyl]-1,1-dioxo-1λ^6-isothiazolidine-3-carboxylic acid((1S,2S,3S,5R)-2,6,6-trimethyl-bicyclo[3.1.1]hept-3-yl)-amide]  96%
4. COc1ccc(Cl)c(CN(Cc2cccc(CN3C(C(=O)N4CCC(c5ccccc5)CC4)CCS3(=O)=O)c2)[C@H](CN(C)C)CC(C)(C)C)c1F (stereo partly drawn) [Example 24, [2-(3-{[(6-Chloro-2-fluoro-3-methoxy-benzyl)-((S)-1-dimethylaminomethyl-3,3-dimethyl-butyl)-amino]-methyl}-benzyl)-1,1-dioxo-1λ^6-isothiazolidin-3-yl]-(4-phenyl-piperidin-1-yl)-methanone]  96%
5. COc1ccc(Cl)c(CN(Cc2cccc(CN3C(C(=O)N[C@H]4CC5CCC4(C)C5(C)C)CCS3(=O)=O)c2)[C@H](CN(C)C)CC(C)(C)C)c1F (stereo partly drawn) [Example 28, 2-(3-{[(6-Chloro-2-fluoro-3-methoxy-benzyl)-((S)-1-dimethylaminomethyl-3,3-dimethyl-butyl)-amino]-methyl}-benzyl)-1,1-dioxo-1λ^6-isothiazolidine-3-carboxylic acid((S)-1,7,7-trimethyl-bicyclo[2.2.1]hept-2-yl)-amide]  96%
6. COc1ccc(Cl)c(CN(Cc2cccc(CN3C(C(=O)NC4C5CC6CC(C5)CC4C6)CCS3(=O)=O)c2)[C@H](CN(C)C)CC(C)(C)C)c1F (stereo partly drawn) [Example 30, 2-(3-{[(6-Chloro-2-fluoro-3-methoxy-benzyl)-((S)-1-dimethylaminomethyl-3,3-dimethyl-butyl)-amino]-methyl}-benzyl)-1,1-dioxo-1λ^6-isothiazolidine-3-carboxylic acid adamantan-2-ylamide]  96%
7. COc1ccc(Cl)c(CN(Cc2cccc(CN3C(C(=O)N4CCC(O)(c5ccc(Cl)cc5)CC4)CCS3(=O)=O)c2)[C@H](CN(C)C)CC(C)(C)C)c1F (stereo partly drawn) [Example 32, [2-(3-{[(6-Chloro-2-fluoro-3-methoxy-benzyl)-((S)-1-dimethylaminomethyl-3,3-dimethyl-butyl)-amino]-methyl}-benzyl)-1,1-dioxo-1λ^6-isothiazolidin-3-yl]-[4-(4-chloro-phenyl)-4-hydroxy-piperidin-1-yl]-methanone]  96%
8. COc1ccc(Cl)c(CN(Cc2cccc(CN3C(C(=O)NC45CC6CC(CC(C6)C4)C5)CCS3(=O)=O)c2)[C@H](CN(C)C)CC(C)(C)C)c1F (stereo partly drawn) [Example 20, 2-(3-{[(6-Chloro-2-fluoro-3-methoxy-benzyl)-((S)-1-dimethylaminomethyl-3,3-dimethyl-butyl)-amino]-methyl}-benzyl)-1,1-dioxo-1λ^6-isothizolidine-3-carboxylic acid adamantan-1-ylamide]  95%
9. COc1ccc(Cl)c(CN(Cc2cccc(CN3C(C(=O)NCc4ccc(Cl)cc4)CCS3(=O)=O)c2)[C@H](CN(C)C)CC(C)(C)C)c1F (stereo partly drawn) [Example 27, 2-(3-{[(6-Chloro-2-fluoro-3-methoxy-benzyl)-((S)-1-dimethylaminomethyl-3,3-dimethyl-butyl)-amino]-methyl}-benzyl)-1,1-dioxo-1λ^6-isothiazolidine-3-carboxylic acid 4-chloro-benzylamide]  95%
10. COc1ccc(F)c(F)c1CN(Cc1cccc(CN2C(C(=O)N[C@H]3C[C@H]4C[C@@H]([C@@H]3C)C4(C)C)CCS2(=O)=O)c1)[C@@H](Cc1ccccc1)CN(C)C (stereo partly drawn) [Example 29, 2-(3-{[(2,3-Difluoro-6-methoxy-benzyl)-((S)-1-dimethylaminomethyl-2-phenyl-ethyl)-amino]-methyl}-benzyl)-1,1-dioxo-1λ^6-isothiazolidine-3-carboxylic acid((1S,2S,3S,5R)-2,6,6-trimethyl-bicyclo[3.1.1]hept-3-yl)-amide]  95%
11. C[C@@H]1[C@@H](NC(=O)C2CCS(=O)(=O)N2Cc2cccc(CN(Cc3c(F)ccc(Br)c3F)[C@H](CN(C)C)CC(C)(C)C)c2)C[C@H]2C[C@@H]1C2(C)C (stereo partly drawn) [Example 18, 2-(3-{[(3-Bromo-2,6-difluoro-benzyl)-((S)-1-dimethylaminomethyl-3,3-dimethyl-butyl)-amino]-methyl}-benzyl)-1,1-dioxo-1λ^6-isothiazolidine-3-carboxylic acid((1S,2S,3S,5R)-2,6,6-trimethyl-bicyclo[3.1.1]hept-3-yl)-amide trifluoroacetate salt]  94%
12. C[C@@H]1[C@@H](NC(=O)C2CCS(=O)(=O)N2Cc2cccc(CN(Cc3c(F)ccc(F)c3F)[C@H](CN(C)C)CC(C)(C)C)c2)C[C@H]2C[C@@H]1C2(C)C (stereo partly drawn) [Example 13, 2-(3-{[((S)-1-Dimethylaminomethyl-3,3-dimethyl-butyl)-(2,3,6-trifluoro-benzyl)-amino]-methyl}-benzyl)-1,1-dioxo-1λ^6-isothiazolidine-3-carboxylic acid((1S,2S,3S,5R)-2,6,6-trimethyl-bicyclo[3.1.1]hept-3-yl)-amide trifluoroacetate salt]  93%
13. COc1ccc(Cl)c(CN(Cc2cccc(CN3C(C(=O)N[C@H]4C[C@H]5C[C@@H]([C@@H]4C)C5(C)C)CCS3(=O)=O)c2)[C@@H](Cc2cccc(Cl)c2)CN(C)C)c1F (stereo partly drawn) [Example 22, 2-[3-({(6-Chloro-2-fluoro-3-methoxy-benzyl)-[(S)-2-(3-chloro-phenyl)-1-dimethylaminomethyl-ethyl]-amino}-methyl)-benzyl]-1,1-dioxo-1λ^6-isothiazolidine-3-carboxylic acid((1S,2S,3S,5R)-2,6,6-trimethyl-bicyclo[3.1.1]hept-3-yl)-amide]  93%
14. Cc1ccc(Cl)c(CN(Cc2cccc(CN3C(C(=O)N[C@H]4C[C@H]5C[C@@H]([C@@H]4C)C5(C)C)CCS3(=O)=O)c2)[C@H](CN(C)C)CC(C)(C)C)c1F (stereo partly drawn) [Example 15, 2-(3-{[(6-Chloro-2-fluoro-3-methyl-benzyl)-((S)-1-dimethylaminomethyl-3,3-dimethylbutyl)-amino]-methyl}-benzyl)-1,1-dioxo-1λ^6-isothiazolidine-3-carboxylic acid((1S,2S,3S,5R)-2,6,6-trimethyl-bicyclo[3.1.1]hept-3-yl)-amide trifluoroacetate salt]  91%
15. COc1ccc(Cl)c(CN(Cc2cccc(CN3C(C(=O)N[C@H]4C[C@H]5C[C@@H]([C@@H]4C)C5(C)C)CCS3(=O)=O)c2)[C@@H](Cc2ccccc2)CN(C)C)c1F (stereo partly drawn) [Example 21, 2-(3-{[(6-Chloro-2-fluoro-3-methoxy-benzyl)-((S)-1-dimethylaminomethyl-2-phenyl-ethyl)-amino]-methyl}-benzyl)-1,1-dioxo-1λ^6-isothiazolidine-3-carboxylic acid((1S,2S,3S,5R)-2,6,6-trimethyl-bicyclo[3.1.1]hept-3-yl)-amide]  77%
16. COc1ccc(Br)c(CN(Cc2cccc(CN3C(C(=O)N[C@H]4C[C@H]5C[C@@H]([C@@H]4C)C5(C)C)CCS3(=O)=O)c2)[C@H](CN(C)C)CC(C)(C)C)c1O (stereo partly drawn) [Example 14, 2-(3-{[(6-Bromo-2-hydroxy-3-methoxy-benzyl)-((S)-1-dimethylaminomethyl-3,3-dimethyl-butyl)-amino]-methyl}-benzyl)-1,1-dioxo-1λ^6-isothiazolidine-3-carboxylic acid((1S,2S,3S,5R)-2,6,6-trimethyl-bicyclo[3.1.1]hept-3-yl)-amide trifluoroacetate salt]  75%
17. COc1ccc(Cl)c(CN(Cc2cccc(CN3C(C(=O)N[C@@H]4C[C@@H]5C[C@H]([C@H]4C)C5(C)C)CCS3(=O)=O)c2)[C@H](CN(C)C)CC(C)(C)C)c1F (stereo partly drawn) [Example 19, 2-(3-{[(6-Chloro-2-fluoro-3-methoxy-benzyl)-((S)-1-dimethylaminomethyl-3,3-dimethyl-butyl)-amino]-methyl}-benzyl)-1,1-dioxo-1λ^6-isothiazolidine-3-carboxylic acid((1R,2R,3R,5S)-2,6,6-trimethyl-bicyclo[3.1.1]hept-3-yl)-amide]  73%
